Numbered stars: 1 amine (or outer) side, 2 acyl side, 3 side chain; on linkers, the order of the positions; unused ones are H or OH. Bridge positions count the residues as written; N and C are the ends. Square brackets hold non-standard residues; d marks the D form. Side chains are listed from the residue outwards. Peptide text beside a SMILES is read from it. * marks the point of attachment. C20 diacid = O=C(O)CCCCCCCCCCCCCCCCCCC(=O)*; γGlu = O=C(O)[C@H](CCC(=O)[*:2])N[*:1]; Hyp = O=C(O)[C@@H]1C[C@@H](O)CN1; AEEA = NCCOCCOCC(=O)O
How the values were obtained:
[1] = target: T1, hAMY3 receptor (Homo sapiens, UniProt O60896+P30988); assay: cAMP assay for in vitro receptor activation, hAMY3-R; format: cell-based; details: cAMP assay, hAMY3 receptor; read-out: hAMY3R EC50
T1 sequence (P30988 25-474): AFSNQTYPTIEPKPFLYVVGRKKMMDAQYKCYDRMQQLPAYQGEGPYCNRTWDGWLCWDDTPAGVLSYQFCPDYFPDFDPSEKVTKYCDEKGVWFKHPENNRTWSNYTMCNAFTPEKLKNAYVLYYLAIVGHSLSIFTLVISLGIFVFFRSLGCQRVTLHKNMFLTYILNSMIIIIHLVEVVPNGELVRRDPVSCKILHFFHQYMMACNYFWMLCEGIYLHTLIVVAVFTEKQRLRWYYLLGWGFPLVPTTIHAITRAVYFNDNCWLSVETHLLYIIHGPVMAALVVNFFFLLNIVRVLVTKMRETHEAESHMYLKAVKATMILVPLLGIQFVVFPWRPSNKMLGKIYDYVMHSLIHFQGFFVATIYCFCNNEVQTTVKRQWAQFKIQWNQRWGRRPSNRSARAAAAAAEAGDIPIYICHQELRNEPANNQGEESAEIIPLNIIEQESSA
T1 sequence (O60896 24-148 partner): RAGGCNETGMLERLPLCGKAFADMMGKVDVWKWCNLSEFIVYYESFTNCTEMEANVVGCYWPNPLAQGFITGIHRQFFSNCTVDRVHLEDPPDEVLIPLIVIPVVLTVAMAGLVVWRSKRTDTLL
Method in brief: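 Stable hAMY3 cells; DPBS + 0.05% casein + 0.5 mM IBMX; graded compound doses, 30 min, RT; cAMP via HTRF Gs kit, TR-FRET read at 1 h.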

[2] = target: hAM1 receptor (Homo sapiens, UniProt O60895+Q16602); assay: cAMP assay for in vitro receptor activation, hAM1-R; format: cell-based; details: cAMP assay, hAM1 receptor; read-out: hAM1R EC50
Sequence of hAM1 receptor (Q16602 23-461): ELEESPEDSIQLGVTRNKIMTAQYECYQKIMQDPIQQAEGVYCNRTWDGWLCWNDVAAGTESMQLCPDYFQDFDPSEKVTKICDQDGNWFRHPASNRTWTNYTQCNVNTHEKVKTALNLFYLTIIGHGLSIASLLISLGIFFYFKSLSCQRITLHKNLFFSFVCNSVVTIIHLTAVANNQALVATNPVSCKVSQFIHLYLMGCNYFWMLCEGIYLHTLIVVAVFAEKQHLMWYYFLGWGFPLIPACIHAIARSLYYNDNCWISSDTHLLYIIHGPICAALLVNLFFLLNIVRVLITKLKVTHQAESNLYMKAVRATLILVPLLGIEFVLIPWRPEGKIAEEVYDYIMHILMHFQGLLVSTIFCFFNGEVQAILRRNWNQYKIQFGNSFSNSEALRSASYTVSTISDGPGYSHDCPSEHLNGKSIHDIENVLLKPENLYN
Sequence of hAM1 receptor (O60895 43-175 partner): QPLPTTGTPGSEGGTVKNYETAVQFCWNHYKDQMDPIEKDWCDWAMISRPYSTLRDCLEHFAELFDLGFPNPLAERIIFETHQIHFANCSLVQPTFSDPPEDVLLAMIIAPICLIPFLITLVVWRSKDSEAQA
Method in brief: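 Monoclonal stable hAM1-overexpressing cells, thawed from frozen stock; 8000 cells/well in DPBS + 0.05% casein + 0.5 mM IBMX; read-out cAMP.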

EC50 [1] [nM]	EC50 [2] [nM]	Compound
0.013	116	CC[C@H](C)[C@H](NC(=O)[C@H](CCC(N)=O)NC(=O)[C@H](Cc1c[nH]cn1)NC(=O)[C@H](C)NC(=O)[C@H](CC(C)C)NC(=O)[C@H](CCCNC(=N)N)NC(=O)[C@H](CCC(N)=O)NC(=O)[C@@H](NC(=O)[C@@H](NC(=O)[C@@H]1CSSC[C@H](NC(=O)[C@H](CCCCN)NC(=O)CC[C@H](NC(=O)CCCCCCCCCCCCCCCCCCC(=O)O)C(=O)O)C(=O)N[C@@H](CC(N)=O)C(=O)N[C@@H](Cc2ccccc2)C(=O)N[C@@H](C)C(=O)N[C@@H]([C@@H](C)O)C(=O)N1)[C@@H](C)O)C(C)C)C(=O)N[C@@H](Cc1ccc(O)cc1)C(=O)N[C@@H](CCC(N)=O)C(=O)N[C@@H](Cc1ccccc1)C(=O)N[C@H](C(=O)N[C@@H](CC(=O)O)C(=O)N[C@@H](CCCCN)C(=O)N[C@@H](CC(=O)O)C(=O)N[C@@H](CCCCN)C(=O)N[C@@H](CC(=O)O)C(=O)N[C@@H](CC(N)=O)C(=O)N[C@H](C(=O)N[C@@H](C)C(=O)N1CCC[C@H]1C(=O)N[C@@H](CCCNC(=N)N)C(=O)N[C@H](C(=O)N[C@@H](CCC(=O)O)C(=O)N[C@H](C(=O)NCC(=O)N[C@@H](CO)C(=O)N[C@@H](CC(N)=O)C(=O)NCC(=O)N1C[C@H](O)C[C@H]1C(N)=O)C(C)C)[C@@H](C)O)C(C)C)[C@@H](C)O [compound 67] ({C20 diacid-γGlu}-KCNFATCTVQRLAHQIYQFTDKDKDNVAPRTEVGSNG[Hyp]-NH2; disulfide 2-7)
0.008	> 5000	CC[C@H](C)[C@H](NC(=O)[C@H](CCC(N)=O)NC(=O)[C@H](Cc1c[nH]cn1)NC(=O)[C@H](C)NC(=O)[C@H](CC(C)C)NC(=O)[C@H](CCCNC(=N)N)NC(=O)[C@H](CCC(N)=O)NC(=O)[C@@H](NC(=O)[C@@H](NC(=O)[C@@H]1CSSC[C@H](NC(=O)[C@@H](N)CCCCN)C(=O)N[C@@H](CC(N)=O)C(=O)N[C@@H]([C@@H](C)O)C(=O)N[C@@H](C)C(=O)N[C@@H]([C@@H](C)O)C(=O)N1)[C@@H](C)O)C(C)C)C(=O)N[C@@H](Cc1ccc(O)cc1)C(=O)N[C@@H](CCC(N)=O)C(=O)N[C@@H](Cc1ccccc1)C(=O)N[C@H](C(=O)N[C@@H](CC(=O)O)C(=O)N[C@@H](CCCCN)C(=O)N[C@@H](CC(=O)O)C(=O)N[C@@H](CCCCN)C(=O)N[C@@H](CC(=O)O)C(=O)N[C@@H](CC(N)=O)C(=O)N[C@H](C(=O)N1CCC[C@H]1C(=O)N1CCC[C@H]1C(=O)N[C@H](C(=O)N[C@@H](CC(N)=O)C(=O)N[C@H](C(=O)NCC(=O)N[C@@H](CO)C(=O)N[C@@H](CC(N)=O)C(=O)NCC(=O)N1C[C@H](O)C[C@H]1C(N)=O)C(C)C)[C@@H](C)O)C(C)C)[C@@H](C)O [compound 30] (H-KCNTATCTVQRLAHQIYQFTDKDKDNVPPTNVGSNG[Hyp]-NH2; disulfide 2-7; N-terminus assumed)
0.01	> 5000	CC[C@H](C)[C@H](NC(=O)[C@H](CCC(N)=O)NC(=O)[C@H](CCC(=O)O)NC(=O)[C@H](C)NC(=O)[C@H](CC(C)C)NC(=O)[C@H](CCCNC(=N)N)NC(=O)[C@H](CCC(N)=O)NC(=O)[C@@H](NC(=O)[C@@H](NC(=O)[C@@H]1CSSC[C@H](NC(=O)[C@@H](N)CCCCN)C(=O)N[C@@H](CC(N)=O)C(=O)N[C@@H]([C@@H](C)O)C(=O)N[C@@H](C)C(=O)N[C@@H]([C@@H](C)O)C(=O)N1)[C@@H](C)O)C(C)C)C(=O)N[C@@H](Cc1ccc(O)cc1)C(=O)N[C@@H](CCC(N)=O)C(=O)N[C@@H](Cc1ccccc1)C(=O)N[C@H](C(=O)N[C@@H](CC(=O)O)C(=O)N[C@@H](CCCCN)C(=O)N[C@@H](CC(=O)O)C(=O)N[C@@H](CCCCN)C(=O)N[C@@H](CC(=O)O)C(=O)N[C@@H](CCCCNC(=O)COCCOCCNC(=O)COCCOCCNC(=O)CC[C@H](NC(=O)CCCCCCCCCCCCCCCCCCC(=O)O)C(=O)O)C(=O)N[C@H](C(=O)N[C@@H](C)C(=O)N1CCC[C@H]1C(=O)N1CCC[C@H]1C(=O)N[C@H](C(=O)N[C@@H](CC(N)=O)C(=O)N[C@H](C(=O)NCC(=O)N[C@@H](CO)C(=O)N[C@@H](CC(N)=O)C(=O)NCC(=O)N1C[C@H](O)C[C@H]1C(N)=O)C(C)C)[C@@H](C)O)C(C)C)[C@@H](C)O [compound 41] (H-KCNTATCTVQRLAEQIYQFTDKDKDK([AEEA-AEEA-γGlu-C20 diacid])VAPPTNVGSNG[Hyp]-NH2; disulfide 2-7; N-terminus assumed)
0.022	12	CC[C@H](C)[C@H](NC(=O)[C@H](CCCCN)NC(=O)[C@@H](NC(=O)[C@H](CCCNC(=N)N)NC(=O)[C@@H]1CCCN1C(=O)[C@H](C)NC(=O)[C@@H](NC(=O)[C@H](CC(N)=O)NC(=O)[C@H](CC(=O)O)NC(=O)[C@H](CCCCN)NC(=O)[C@H](CC(=O)O)NC(=O)[C@H](CCCCN)NC(=O)[C@H](CC(=O)O)NC(=O)[C@@H](NC(=O)[C@H](Cc1ccccc1)NC(=O)[C@H](CCC(N)=O)NC(=O)[C@H](Cc1ccc(O)cc1)NC(=O)[C@H](CC(C)C)NC(=O)[C@H](Cc1ccccc1)NC(=O)[C@H](Cc1c[nH]cn1)NC(=O)[C@H](C)NC(=O)[C@H](CC(C)C)NC(=O)[C@H](CCCNC(=N)N)NC(=O)[C@H](CCC(N)=O)NC(=O)[C@@H](NC(=O)[C@@H](NC(=O)[C@@H]1CSSC[C@H](NC(=O)CN)C(=O)N[C@@H](CCCNC(=N)N)C(=O)N[C@@H](Cc2ccccc2)C(=O)NCC(=O)N[C@@H]([C@@H](C)O)C(=O)N1)[C@@H](C)O)C(C)C)[C@@H](C)O)C(C)C)[C@@H](C)O)C(=O)NCC(=O)N[C@@H](CO)C(=O)N[C@@H](CC(N)=O)C(=O)NCC(=O)N[C@@H](Cc1ccc(O)cc1)C(N)=O [compound 376] (H-GCRFGTCTVQRLAHFLYQFTDKDKDNVAPRTKIGSNGY-NH2; disulfide 2-7; N-terminus assumed)
0.018	> 5000	CC[C@H](C)[C@H](NC(=O)[C@H](CCC(N)=O)NC(=O)[C@H](Cc1c[nH]cn1)NC(=O)[C@H](C)NC(=O)[C@H](CC(C)C)NC(=O)[C@H](CCCNC(=N)N)NC(=O)[C@@H](NC(=O)[C@@H](NC(=O)[C@@H](NC(=O)[C@@H]1CSSC[C@H](NC(=O)[C@H](CCCCN)NC(=O)CC[C@H](NC(=O)CCCCCCCCCCCCCCCCCCC(=O)O)C(=O)O)C(=O)N[C@@H](CC(N)=O)C(=O)N[C@@H]([C@@H](C)O)C(=O)N[C@@H](C)C(=O)N[C@@H]([C@@H](C)O)C(=O)N1)[C@@H](C)O)C(C)C)C(C)C)C(=O)N[C@@H](Cc1ccc(O)cc1)C(=O)N[C@@H](CCC(N)=O)C(=O)N[C@@H](Cc1ccccc1)C(=O)N[C@H](C(=O)N[C@@H](CC(=O)O)C(=O)N[C@@H](CCCCN)C(=O)N[C@@H](CC(=O)O)C(=O)N[C@@H](CCCCN)C(=O)N[C@@H](CC(=O)O)C(=O)N[C@@H](CC(N)=O)C(=O)N[C@H](C(=O)N[C@@H](C)C(=O)N1CCC[C@H]1C(=O)N1CCC[C@H]1C(=O)N[C@H](C(=O)N[C@@H](CC(N)=O)C(=O)N[C@H](C(=O)NCC(=O)N[C@@H](CO)C(=O)N[C@@H](CC(N)=O)C(=O)NCC(=O)N1C[C@H](O)C[C@H]1C(N)=O)C(C)C)[C@@H](C)O)C(C)C)[C@@H](C)O [compound 103] ({C20 diacid-γGlu}-KCNTATCTVVRLAHQIYQFTDKDKDNVAPPTNVGSNG[Hyp]-NH2; disulfide 2-7)
0.031	> 5000	CC[C@H](C)[C@H](NC(=O)[C@H](CCC(N)=O)NC(=O)[C@H](CCC(=O)O)NC(=O)[C@H](C)NC(=O)[C@H](CC(C)C)NC(=O)[C@H](CCCNC(=N)N)NC(=O)[C@H](C)NC(=O)[C@@H](NC(=O)[C@@H](NC(=O)[C@@H]1CSSC[C@H](NC(=O)[C@H](CCCCN)NC(=O)CC[C@H](NC(=O)CCCCCCCCCCCCCCCCCCC(=O)O)C(=O)O)C(=O)N[C@@H](CC(N)=O)C(=O)N[C@@H]([C@@H](C)O)C(=O)N[C@@H](C)C(=O)N[C@@H]([C@@H](C)O)C(=O)N1)[C@@H](C)O)C(C)C)C(=O)N[C@@H](Cc1ccc(O)cc1)C(=O)N[C@@H](CCC(N)=O)C(=O)N[C@@H](Cc1ccccc1)C(=O)N[C@H](C(=O)N[C@@H](CC(=O)O)C(=O)N[C@@H](CCCCN)C(=O)N[C@@H](CC(=O)O)C(=O)N[C@@H](CCCCN)C(=O)N[C@@H](CC(=O)O)C(=O)N1CCC[C@H]1C(=O)N[C@H](C(=O)N[C@@H](C)C(=O)N1CCC[C@H]1C(=O)N1CCC[C@H]1C(=O)N[C@H](C(=O)N[C@@H](CC(N)=O)C(=O)N[C@H](C(=O)NCC(=O)N[C@@H](CO)C(=O)N[C@@H](CC(N)=O)C(=O)NCC(=O)N1C[C@H](O)C[C@H]1C(N)=O)C(C)C)[C@@H](C)O)C(C)C)[C@@H](C)O [compound 133] ({C20 diacid-γGlu}-KCNTATCTVARLAEQIYQFTDKDKDPVAPPTNVGSNG[Hyp]-NH2; disulfide 2-7)
